Assays:
[1] = system: S. aureus DSM 20231; test: fitness (endpoint OD595 vs no drug) (fraction); higher = more growth
How it was run: (§1)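 At 37 °C, bacteria in TSB, LB Lennox or CY were grown in 384-well plates from a starting OD595 of 0.01. OD595 was measured every 30 min for 14 h, with the first reading used as background. Fitness is the optical density at the switch to stationary phase as a fraction of the robust mean of no-drug control wells, capped at 1.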

[2] = system: S. aureus Newman; test: as above
How it was run: as §1

[3] = system: S. pneumoniae D39V; test: as above
How it was run: as §1

[4] = system: B. subtilis 168; test: Bliss interaction score (quartile over a dose matrix) (fitness difference); higher = more antagonism (negative = synergy)
How it was run: (§2)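 Growth was read as OD595 when cultures entered stationary phase, and each value was divided by the plate's robust no-drug mean and capped at 1. This normalised ratio is the fitness value, and fitness for each single drug came from the combination data. The Bliss score subtracts the expected fitness, taken as the product, from the observed fitness and is given as quartiles across technical, biological and donor/recipient replicates.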

[5] = system: S. aureus DSM 20231; test: as above
How it was run: as §2

[6] = system: S. aureus Newman; test: as above
How it was run: as §2

[7] = system: S. pneumoniae D39V; test: as above
How it was run: as §2
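Throughout, for Bliss interaction score (quartile over a dose matrix): first quartile when negative (synergy) and third quartile when positive (antagonism).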
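Throughout, for fitness (endpoint OD595 vs no drug): OD595 on entry to stationary phase over no-drug wells; at most 1.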

CC1(C)S[C@@H]2[C@H](NC(=O)[C@H](N)c3ccc(O)cc3)C(=O)N2[C@H]1C(=O)O [Amoxicillin] + Cc1ncc([N+](=O)[O-])n1CCO [Metronidazole]
Conditions	fitness
[1], first compound 0.0625 µg/mL, partner 0.625 µg/mL	0.588
[1], first compound 0.125 µg/mL, partner 1.25 µg/mL	0.428
[1], first compound 0.5 µg/mL, partner 0.625 µg/mL	0.0108
[1], first compound 0.5 µg/mL, partner 1.25 µg/mL	0.0138
[1], first compound 0.5 µg/mL, partner 2.5 µg/mL	0.0153
[2], first compound 0.0625 µg/mL, partner 0.625 µg/mL	0.835
[2], first compound 0.0625 µg/mL, partner 0.781 µg/mL	0.922
[2], first compound 0.0625 µg/mL, partner 1.25 µg/mL	0.906
[2], first compound 0.0625 µg/mL, partner 1.562 µg/mL	0.917
[2], first compound 0.0625 µg/mL, partner 2.5 µg/mL	0.87
[2], first compound 0.0625 µg/mL, partner 3.124 µg/mL	0.913
[2], first compound 0.125 µg/mL, partner 0.625 µg/mL	0.839
[2], first compound 0.125 µg/mL, partner 0.781 µg/mL	0.952
[2], first compound 0.125 µg/mL, partner 1.25 µg/mL	0.905
[2], first compound 0.125 µg/mL, partner 1.562 µg/mL	0.972
[2], first compound 0.125 µg/mL, partner 2.5 µg/mL	0.836
[2], first compound 0.125 µg/mL, partner 3.124 µg/mL	0.957
[2], first compound 0.25 µg/mL, partner 0.625 µg/mL	0.799
[2], first compound 0.25 µg/mL, partner 0.781 µg/mL	0.945
[2], first compound 0.25 µg/mL, partner 1.25 µg/mL	0.789
[2], first compound 0.25 µg/mL, partner 1.562 µg/mL	0.951
[2], first compound 0.25 µg/mL, partner 2.5 µg/mL	0.816
[2], first compound 0.25 µg/mL, partner 3.124 µg/mL	0.929
[3], first compound 0.0008 µg/mL, partner 1.073 µg/mL	0.958
[3], first compound 0.0008 µg/mL, partner 2.145 µg/mL	0.946
[3], first compound 0.0008 µg/mL, partner 4.29 µg/mL	0.919
[3], first compound 0.0015 µg/mL, partner 1.073 µg/mL	0.972
[3], first compound 0.0015 µg/mL, partner 1.25 µg/mL	0.988
[3], first compound 0.0015 µg/mL, partner 2.145 µg/mL	0.926
[3], first compound 0.0015 µg/mL, partner 2.5 µg/mL	≥ 1
[3], first compound 0.0015 µg/mL, partner 4.29 µg/mL	0.941
[3], first compound 0.0015 µg/mL, partner 5 µg/mL	0.995
[3], first compound 0.003 µg/mL, partner 1.073 µg/mL	0.938
[3], first compound 0.003 µg/mL, partner 1.25 µg/mL	0.97
[3], first compound 0.003 µg/mL, partner 2.145 µg/mL	0.914
[3], first compound 0.003 µg/mL, partner 2.5 µg/mL	0.989
[3], first compound 0.003 µg/mL, partner 4.29 µg/mL	0.93
[3], first compound 0.003 µg/mL, partner 5 µg/mL	0.946

fitness, [3], one replicate
Conditions	partner 1.25 µg/mL	partner 2.5 µg/mL	partner 5 µg/mL
first compound 0.0008 µg/mL	≥ 1	≥ 1	≥ 1
first compound 0.006 µg/mL	0.561	0.587	0.574

Conditions	Bliss interaction score
[4]	0.0817
[5]	0.0885
[6]	0.0677
[7]	-0.0259

CC1(C)S[C@@H]2[C@H](NC(=O)[C@H](N)c3ccc(O)cc3)C(=O)N2[C@H]1C(=O)O [Amoxicillin] + Cc1onc(-c2ccccc2)c1C(=O)N[C@@H]1C(=O)N2[C@@H]1SC(C)(C)[C@@H]2C(=O)O [Oxacillin]
Conditions	fitness
[1], first compound 0.0625 µg/mL, partner 0.0156 µg/mL	0.52
[1], first compound 0.0625 µg/mL, partner 0.0312 µg/mL	0.56
[1], first compound 0.0625 µg/mL, partner 0.0625 µg/mL	0.459
[1], first compound 0.125 µg/mL, partner 0.0156 µg/mL	0.342
[1], first compound 0.125 µg/mL, partner 0.0625 µg/mL	0.263
[1], first compound 0.25 µg/mL, partner 0.0156 µg/mL	0.107
[1], first compound 0.25 µg/mL, partner 0.0312 µg/mL	0.0945
[1], first compound 0.25 µg/mL, partner 0.0625 µg/mL	0.06
[1], first compound 0.5 µg/mL, partner 0.0156 µg/mL	0.0188
[1], first compound 0.5 µg/mL, partner 0.0312 µg/mL	0.0143
[1], first compound 0.5 µg/mL, partner 0.0625 µg/mL	0.021
[2], first compound 0.0625 µg/mL, partner 0.0156 µg/mL	0.724
[2], first compound 0.0625 µg/mL, partner 0.0312 µg/mL	0.651
[2], first compound 0.0625 µg/mL, partner 0.0625 µg/mL	0.575
[2], first compound 0.125 µg/mL, partner 0.0156 µg/mL	0.674
[2], first compound 0.125 µg/mL, partner 0.0625 µg/mL	0.547
[2], first compound 0.25 µg/mL, partner 0.0156 µg/mL	0.663
[3], first compound 0.0008 µg/mL, partner 0.01 µg/mL	0.985
[3], first compound 0.0008 µg/mL, partner 0.02 µg/mL	0.831
[3], first compound 0.0008 µg/mL, partner 0.04 µg/mL	0.33
[3], first compound 0.0015 µg/mL, partner 0.005 µg/mL	≥ 1
[3], first compound 0.0015 µg/mL, partner 0.01 µg/mL	0.977
[3], first compound 0.0015 µg/mL, partner 0.02 µg/mL	0.861
[3], first compound 0.0015 µg/mL, partner 0.04 µg/mL	0.266
[3], first compound 0.003 µg/mL, partner 0.005 µg/mL	0.957
[3], first compound 0.003 µg/mL, partner 0.01 µg/mL	0.882
[3], first compound 0.003 µg/mL, partner 0.02 µg/mL	0.825
[3], first compound 0.003 µg/mL, partner 0.04 µg/mL	0.12

fitness, [3], one replicate
Conditions	partner 0.005 µg/mL	partner 0.01 µg/mL	partner 0.02 µg/mL
first compound 0.0008 µg/mL	≥ 1	–	–
first compound 0.006 µg/mL	0.587	0.476	0.147

Conditions	Bliss interaction score
[4]	0.031
[5]	0.104
[6]	0.0431
[7]	-0.0929
